According to patent US8569281B2, “Compounds and their administration for treating a neurodegenerative disease as well as a method for identifying a compound capable of inhibiting a kinase, such as LRRK” (Medical Research Council Technology, priority 2010, dated 2013):

Molecular target: LRRK2 (Homo sapiens (Human), UniProt Q5S007)
Experiment: In Vitro LRRK2 Assay (LabChip 3000, fluorescently-labeled peptide substrate)
Assay type: biochemical
Settings: ATP 130 μM, substrate 1 μM, 2 hours, ambient temperature; LRRK2 variant not given; read-out: Ki (μM), affinity values for LRRK2
Protocol: This assay was used to determine a compound's potency in inhibiting activity of LRRK2 by determining, Kiapp, IC50, or percent inhibition values. In a polypropylene plate, LRRK2, fluorescently-labeled peptide substrate, ATP and test compound were incubated together. Using a LabChip 3000 (Caliper Life Sciences), after the reaction the substrate was separated by capillary electrophoresis into two populations: phosphorylated and unphosphorylated. The relative amounts of each were quantitated by fluorescence intensity. LRRK2 Ki was determined according to the equation: Y=V0*(1−((x+Ki*(1+S/Km)+Et)/(2*Et)−(((x+Ki*(1+S/Km)+Et)^2−(4*Et*x))^0.5)/(2*Et))).
Ki values in Table 4 and elsewhere herein are shown in μM.
Assay conditions and materials used were as follows:
Compound Plate Preparation:
For serial dilutions, 34.6 μl DMSO was added to columns 3-24.
Total and Blank Preparation:
In Complete Reaction Buffer, substrate was diluted to 4 μM. Equal volumes of Complete Reaction Buffer and 4 μM substrate were combined to obtain the blank. Equal volumes of Complete Reaction Buffer and 4 μM substrate were combined and to the combined solution was added 2× final LRRK2 concentration.
To a 50 μl polypropylene plate, 5 μl/well buffer/substrate was added by hand to Blank wells. A Biomek FX was used to start the kinase reaction (“PLK SAR 23 ATP”). The following were added to the appropriate wells: • 2 μl compound+23 μl ATP; • 5 μl/well compound/ATP in Assay Plate; • 5 μl/well kinase/substrate in Assay Plate;
The plate was incubated for 2 hours in the dark. Biomek FX was used to stop the kinase reaction (“PLK Stop”), and 10 μl/well Stop solution was added to the Assay Plate. Results were read on the LabChip 3000.
The LabChip 3000 was run using the job “LRRK2 IC50” with the following job settings: • Pressure: −1.4 psi • Downstream voltage: −500 V • Upstream voltage: −2350 V • Post sample buffer sip time: 75 seconds • Post dye buffer sip time: 75 seconds • Final delay time: 200 seconds Parkinson's Disease Animal Model

LRRK2, sequence (Q5S007 whole entry G2019S): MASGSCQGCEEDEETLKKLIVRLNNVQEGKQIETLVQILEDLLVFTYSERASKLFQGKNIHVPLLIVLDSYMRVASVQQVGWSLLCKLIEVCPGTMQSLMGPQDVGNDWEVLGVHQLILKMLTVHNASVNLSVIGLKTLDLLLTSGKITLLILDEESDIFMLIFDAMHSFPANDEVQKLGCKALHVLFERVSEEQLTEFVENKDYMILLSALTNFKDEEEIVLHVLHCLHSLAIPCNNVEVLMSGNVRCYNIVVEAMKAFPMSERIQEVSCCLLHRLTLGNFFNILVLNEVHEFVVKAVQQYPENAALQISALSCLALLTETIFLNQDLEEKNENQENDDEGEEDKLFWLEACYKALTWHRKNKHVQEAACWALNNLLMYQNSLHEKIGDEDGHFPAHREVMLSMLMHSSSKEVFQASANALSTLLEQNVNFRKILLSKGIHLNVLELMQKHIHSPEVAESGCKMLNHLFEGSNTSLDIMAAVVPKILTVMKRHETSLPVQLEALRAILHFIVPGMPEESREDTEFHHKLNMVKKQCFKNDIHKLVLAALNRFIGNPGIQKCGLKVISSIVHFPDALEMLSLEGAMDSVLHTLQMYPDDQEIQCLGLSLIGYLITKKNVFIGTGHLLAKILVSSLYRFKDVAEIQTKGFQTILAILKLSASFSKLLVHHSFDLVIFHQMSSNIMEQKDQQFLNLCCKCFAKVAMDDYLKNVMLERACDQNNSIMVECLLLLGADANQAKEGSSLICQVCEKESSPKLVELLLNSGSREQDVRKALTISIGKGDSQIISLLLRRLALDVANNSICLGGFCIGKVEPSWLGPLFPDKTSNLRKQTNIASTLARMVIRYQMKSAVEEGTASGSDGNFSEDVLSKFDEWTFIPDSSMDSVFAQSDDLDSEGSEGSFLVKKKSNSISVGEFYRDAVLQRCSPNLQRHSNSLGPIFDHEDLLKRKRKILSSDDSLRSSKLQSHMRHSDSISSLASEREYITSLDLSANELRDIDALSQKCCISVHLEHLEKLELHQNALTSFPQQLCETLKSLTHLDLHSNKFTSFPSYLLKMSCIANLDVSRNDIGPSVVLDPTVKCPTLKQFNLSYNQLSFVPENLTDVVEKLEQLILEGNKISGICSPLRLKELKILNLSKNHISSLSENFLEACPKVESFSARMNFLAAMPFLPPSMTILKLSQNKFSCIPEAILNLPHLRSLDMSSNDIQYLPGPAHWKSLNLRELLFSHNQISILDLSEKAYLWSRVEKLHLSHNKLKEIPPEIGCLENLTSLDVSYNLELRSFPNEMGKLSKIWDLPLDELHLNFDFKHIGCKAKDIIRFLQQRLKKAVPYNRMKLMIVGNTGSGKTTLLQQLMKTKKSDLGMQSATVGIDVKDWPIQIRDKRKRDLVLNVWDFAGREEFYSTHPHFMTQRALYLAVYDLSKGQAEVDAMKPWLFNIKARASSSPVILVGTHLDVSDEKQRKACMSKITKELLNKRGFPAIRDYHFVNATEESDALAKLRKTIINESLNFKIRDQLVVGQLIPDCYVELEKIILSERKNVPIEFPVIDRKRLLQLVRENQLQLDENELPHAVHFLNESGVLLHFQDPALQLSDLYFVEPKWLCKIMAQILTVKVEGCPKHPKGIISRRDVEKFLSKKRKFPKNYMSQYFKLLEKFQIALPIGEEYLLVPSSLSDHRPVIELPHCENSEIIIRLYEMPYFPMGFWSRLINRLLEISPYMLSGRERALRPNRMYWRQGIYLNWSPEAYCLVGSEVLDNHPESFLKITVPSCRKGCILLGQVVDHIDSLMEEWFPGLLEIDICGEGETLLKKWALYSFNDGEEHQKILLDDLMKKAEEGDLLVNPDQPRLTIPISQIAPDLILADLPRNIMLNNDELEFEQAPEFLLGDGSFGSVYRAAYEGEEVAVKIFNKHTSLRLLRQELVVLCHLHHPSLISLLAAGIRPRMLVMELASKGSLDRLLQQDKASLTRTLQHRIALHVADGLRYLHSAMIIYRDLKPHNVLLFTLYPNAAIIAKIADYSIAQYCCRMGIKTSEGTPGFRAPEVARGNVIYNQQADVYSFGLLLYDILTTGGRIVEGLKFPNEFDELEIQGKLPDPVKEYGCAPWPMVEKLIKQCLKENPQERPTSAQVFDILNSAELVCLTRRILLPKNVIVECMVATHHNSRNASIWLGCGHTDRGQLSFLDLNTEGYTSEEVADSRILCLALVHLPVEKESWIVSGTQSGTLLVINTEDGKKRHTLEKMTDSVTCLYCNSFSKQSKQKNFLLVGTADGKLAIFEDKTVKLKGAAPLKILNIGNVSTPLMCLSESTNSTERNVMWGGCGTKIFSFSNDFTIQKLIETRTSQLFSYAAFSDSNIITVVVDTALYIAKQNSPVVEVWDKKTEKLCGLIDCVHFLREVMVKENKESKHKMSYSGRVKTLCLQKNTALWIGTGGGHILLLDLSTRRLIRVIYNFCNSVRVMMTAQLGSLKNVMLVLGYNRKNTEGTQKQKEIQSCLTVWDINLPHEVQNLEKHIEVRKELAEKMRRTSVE

Row | Ki [µM] | Compound
1 | 0.014 | COc1nccc2[nH]nc(-c3cc(C(=O)NC4COC4)n(C(C)C)c3)c12 [Example 64, 1-isopropyl-4-(4-methoxy-1H-pyrazolo[4,3-c]pyridin-3-yl)-N-(oxetan-3-yl)-1H-pyrrole-2-carboxamide]
2 | 0.019 | CC(C)Oc1nccc2[nH]nc(-c3cc(C(=O)N4CCCCC4)n(C(C)C)c3)c12 [Example 56, (4-(4-Isopropoxy-1H-pyrazolo[4,3-c]pyridin-3-yl)-1-isopropyl-1H-pyrrol-2-yl)(piperidin-1-yl)methanone]
3 | 0.051 | COc1nccc2[nH]nc(-c3ccnc(N4C[C@@H]5C[C@H]4CO5)c3)c12 [Example 118, (1S,4S)-5-(4-(4-Methoxy-1H-pyrazolo[4,3-c]pyridin-3-yl)pyridin-2-yl)-2-oxa-5-azabicyclo[2.2.1]heptanes]
4 | 0.495 | CN1CCc2c(-c3n[nH]c4ccnc(OC5CCOCC5)c34)cccc21 [Example 157, 3-(1-Methylindolin-4-yl)-4-(tetrahydro-2H-pyran-4-yloxy)-1H-pyrazolo[4,3-c]pyridine]
5 | 0.027 | O=C(NC1CC1)c1cccc(-c2[nH]nc3ccnc(OC4CCOCC4)c23)c1 [Example 155, N-Cyclopropyl-3-(4-(tetrahydro-2H-pyran-4-yloxy)-1H-pyrazolo[4,3-c]pyridin-3-yl)benzamide]
6 | 0.078 | CC[C@@H](C)Oc1nccc2[nH]nc(C3CC3)c12 [Example 29, 3-Cyclopropyl-4-[(2R)-butan-2-yloxy)-1H-pyrazolo[4,3-c]pyridine]
7 | 0.0784 | CC(C)NC(=O)c1cccc(-c2[nH]nc3ccnc(OC4CCOCC4)c23)c1 [Example 154, N-Isopropyl-3-(4-(tetrahydro-2H-pyran-4-yloxy)-1H-pyrazolo[4,3-c]pyridin-3-yl)benzamide]
8 | 0.384 | CC(C)Oc1nccc2[nH]nc(-c3ccnc(C(=O)N4C[C@@H]5C[C@H]4CO5)c3)c12 [Example 220, [4-(4-Isopropoxy-1H-pyrazolo[4,3-c]pyridin-3-yl)-pyridin-2-yl]-(1S,4S)-2-oxa-5-aza-bicyclo[2.2.1]hept-5-yl-methanone]
9 | 0.108 | COc1nccc2[nH]nc(-c3cnn(CC4(C)COC4)c3)c12 [Example 89, 4-Methoxy-3-(1-((3-methyloxetan-3-yl)methyl)-1H-pyrazol-4-yl)-1H-pyrazolo[4,3-c]pyridine]
10 | 0.006 | CC(C)Oc1nccc2[nH]nc(-c3cc(C(=O)N4CCCC4)n(C(C)C)c3)c12 [Example 216, [4-(4-Isopropoxy-1H-pyrazolo[4,3-c]pyridin-3-yl)-1-isopropyl-1H-pyrrol-2-yl]-pyrrolidin-1-yl-methanone]
11 | 0.104 | CN(C)C(=O)c1ccc(-c2[nH]nc3ccnc(OC4CCOCC4)c23)cc1F [Example 135, 2-Fluoro-N,N-dimethyl-4-(4-(tetrahydro-2H-pyran-4-yloxy)-1H-pyrazolo[4,3-c]pyridin-3-yl)benzamide]
12 | 0.012 | c1ccc2ncc(-c3n[nH]c4ccnc(OC5CCOCC5)c34)cc2c1 [Example 150, 3-(4-(Tetrahydro-2H-pyran-4-yloxy)-1H-pyrazolo[4,3-c]pyridin-3-yl)quinoline]
13 | 0.13 | Cc1n[nH]c2ccnc(NC3CCOCC3)c12 [Example 188, 3-methyl-N-(tetrahydro-2H-pyran-4-yl)-1H-pyrazolo[4,3-c]pyridin-4-amine]
14 | 0.015 | CNC(=O)c1cccc(-c2cc(-c3n[nH]c4ccnc(OC5CCOCC5)c34)ccn2)c1 [Example 211, N-methyl-3-(4-(4-(tetrahydro-2H-pyran-4-yloxy)-1H-pyrazolo[4,3-c]pyridin-3-yl)pyridin-2-yl)benzamide]
15 | 0.021 | c1cncc(-c2cc(-c3n[nH]c4ccnc(OC5CCOCC5)c34)ccn2)c1 [Example 197, 3-(2,3′-bipyridin-4-yl)-4-(tetrahydro-2H-pyran-4-yloxy)-1H-pyrazolo[4,3-c]pyridine]
16 | 0.075 | COc1nccc2[nH]nc(-c3ccnc(C(F)(F)F)c3)c12 [Example 108, 4-Methoxy-3-(2-(trifluoromethyl)pyridin-4-yl)-1H-pyrazolo[4,3-c]pyridine]
17 | 0.027 | c1cc(-c2n[nH]c3ccnc(NC4CCOCC4)c23)cc(N2CCOCC2)n1 [Example 9, 3-[2-(Morpholin-4-yl)pyridin-4-yl]-N-(tetrahydro-2H-pyran-4-yl)-1H-pyrazolo[4,3-c]pyridin-4-amine]
18 | 0.013 | c1cc(-c2n[nH]c3ccnc(OC4CCOC4)c23)cc(N2CCOCC2)n1 (centres unmarked) [Example 190, 4-(4-(4-(tetrahydrofuran-3-yloxy)-1H-pyrazolo[4,3-c]pyridin-3-yl)pyridin-2-yl)morpholine]
19 | 0.045 | COc1nccc2n[nH]c(-c3cccc(S(C)(=O)=O)c3)c12 [Example 167, 4-Methoxy-3-(3-(methylsulfonyl)phenyl)-1H-pyrazolo[4,3-c]pyridine]
20 | 0.021 | CC(=O)Nc1ccc(-c2cc(-c3n[nH]c4ccnc(OC5CCOCC5)c34)ccn2)cn1 [Example 207, N-(4-(4-(tetrahydro-2H-pyran-4-yloxy)-1H-pyrazolo[4,3-c]pyridin-3-yl)-2,3′-bipyridin-6′-yl)acetamide]
21 | 0.012 | CCn1cc(-c2cc(-c3n[nH]c4ccnc(OC5CCOCC5)c34)ccn2)cn1 [Example 213, 3-(2-(1-ethyl-1H-pyrazol-4-yl)pyridin-4-yl)-4-(tetrahydro-2H-pyran-4-yloxy)-1H-pyrazolo[4,3-c]pyridine]
22 | 0.05 | CN(C)c1cccc(-c2[nH]nc3ccnc(OC4CCOCC4)c23)c1 [Example 153, N,N-Dimethyl-3-(4-(tetrahydro-2H-pyran-4-yloxy)-1H-pyrazolo[4,3-c]pyridin-3-yl)aniline]
23 | 0.029 | CS(=O)(=O)c1cccc(-c2[nH]nc3ccnc(OC4CCOCC4)c23)c1 [Example 165, 3-(3-(Methylsulfonyl)phenyl)-4-(tetrahydro-2H-pyran-4-yloxy)-1H-pyrazolo[4,3-c]pyridine]
24 | 0.066 | CC(=O)Nc1ccccc1-c1cc(-c2n[nH]c3ccnc(OC4CCOCC4)c23)ccn1 [Example 206, N-(2-(4-(4-(tetrahydro-2H-pyran-4-yloxy)-1H-pyrazolo[4,3-c]pyridin-3-yl)pyridin-2-yl)phenyl)acetamide]
25 | 0.858 | Cc1n[nH]c2ccnc(OC3CCCC3)c12 [Example 196, 4-(cyclopentyloxy)-3-methyl-1H-pyrazolo[4,3-c]pyridine]
26 | 0.09 | COc1nccc2n[nH]c(-c3ccc(S(C)(=O)=O)cc3)c12 [Example 173, 4-methoxy-3-(4-(methylsulfonyl)phenyl)-1H-pyrazolo[4,3-c] pyridine]
27 | 0.04 | COc1cc(Nc2[nH]nc3ccnc(OC4CCOCC4)c23)ccn1 [Example 162, N-(2-methoxypyridin-4-yl)-4-(tetrahydro-2H-pyran-4-yloxy)-1H-pyrazolo[4,3-c]pyridin-3-amine]

Row | Compound | Ki [µM]
28 | 3-(1-((2,2-difluorocyclopropyl)methyl)-1H-benzo[d]imidazol-5-yl)-4-(tetrahydro-2H-pyran-4-yloxy)-1H-pyrazolo[4,3-c]pyridine [Example 127] | 0.023
29 | CC(C)n1cc(-c2n[nH]c3ccnc(OC(C)C(F)(F)F)c23)cn1 (centres unmarked) [Example 78, 3-(1-Isopropyl-1H-pyrazol-4-yl)-4-(2,2,2-trifluoro-1-methyl-ethoxy)-1H-pyrazolo[4,3-c]pyridine] | 0.013
